Several values for one entry are separate records, joined by “and”; a condition that tells them apart may be missing. Equal entries are not always repeated. Structures can show the parent of a compound that is named as a salt. Where two headings read alike, the source gives them in different places.
Key:
[1] = system: Airway Hyperresponsiveness (AHR) to histamine in sensitized guinea pigs; assay: Guinea Pig Model of Airway Hyperreactivity; type: in vivo; conditions: for protective effect as measured by airway resistance / protective effect as measured by lung compliance: intravenous dosing at 0.3, 1 and 3 mg/kg; for Intravenous ID50 Dynamic Lung Compliance: Cdyn40, histamine challenge; for Intravenous ID50 Dynamic Lung Compliance / Intravenous ID50 Airway Hyperresponsiveness: ovalbumin-sensitized guinea pigs; for Intravenous ID50 Airway Hyperresponsiveness: airway resistance (RL300), histamine challenge
[2] = target: T1, recombinant human β tryptase (Homo sapiens, UniProt Q15661); assay: β-Tryptase Inhibition (chromogenic assay); type: biochemical; conditions: for Ki: chromogenic assay, substrate S2366 0.5 mM, room temperature, Ki calculated from IC50
T1 construct: made in house; host or cells: yeast cells
T1 sequence (Q15661 31-275): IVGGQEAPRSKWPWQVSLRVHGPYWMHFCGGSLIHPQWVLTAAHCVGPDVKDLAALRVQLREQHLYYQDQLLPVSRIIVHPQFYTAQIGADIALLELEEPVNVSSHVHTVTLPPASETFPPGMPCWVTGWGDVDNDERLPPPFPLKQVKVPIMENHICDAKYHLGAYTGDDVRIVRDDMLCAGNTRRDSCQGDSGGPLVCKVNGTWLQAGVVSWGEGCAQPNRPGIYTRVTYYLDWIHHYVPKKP
Description: Tr0yptase inhibition activity is confirmed using either isolated human lung tryptase or recombinant human β tryptase expressed in yeast cells. Essentially equivalent results are obtained using isolated native enzyme or the expressed enzyme. The assay procedure employs a 96 well microplate (Costar 3590) using L-pyroglutamyl-L-prolyl-L-arginine-para-nitroanilide (S2366: Quadratech) as substrate (essentially as described by McEuen et. al. Biochem Pharm, 1996, 52, pages 331-340). Assays are performed at room temperature using 0.5 mM substrate (2×Km) and the microplate is read on a microplate reader (Beckman Biomek Plate reader) at 405 nm wavelength. The inhibition constants (Ki) for the compound of the present invention and other structurally related compounds, are set forth in Table 1.
Materials and Methods for Trtase Primary Screen (Chromogenic Assay)
S2366 (Stock solutions of 2.5 mM).
Purified recombinant beta Tryptase Stocks of 310 μg/mL.
Add 60 μL of diluted substrate (final concentration of 500 μM in assay buffer) to each well
Add compound in duplicates, final concentration of 20 μM, volume 20 μL
Add enzyme at a final concentration of 50 ng/mL in a volume of 20 μL
Total volume for each well is 100 μL
Agitate briefly to mix and incubate at room temp in the dark for 30 minutes
Read absorbencies at 405 nM
Protocol (IC50 and Ki Determination)
The protocol is essentially the same as above except that the compound is added in duplicates at the following final concentrations: 0.01, 0.03, 0.1, 0.3, 1, 3, 10 uM (All dilutions carried out manually). For every assay, whether single point or IC50 determination, a standard compound is used to derive IC50 for comparison. From the IC50 value, the Ki can be calculated using the following formula:
Ki=IC50/(1+[Substrate]/Km).

[3] = system: Airway Hyperresponsiveness (AHR) to histamine in sensitized guinea pigs; assay: Guinea Pig Model of Airway Hyperreactivity; type: in vivo; conditions: for protection against AHR to histamine, airway resistance: oral dosing, Structure (III) where X=H dosed at 3, 10, and 30 mg/kg; for protection against AHR to histamine, airway resistance / Oral ID50 Dynamic Lung Compliance / Oral ID50 Airway Hyperresponsiveness: 2 hours prior to ovalbumin challenge; for Oral ID50 Dynamic Lung Compliance: Cdyn40; for Oral ID50 Airway Hyperresponsiveness: airway resistance (RL300)
Procedure: Sensitization and drug treatment: Male Hartley guinea pigs (225-250g) are sensitized with ovalbumin (0.5 mL of 1% solution, i.p. and s.c.). On day 4, animals received a booster injection (i.p.) of 0.5 mL of 1% ovalbumin. On day 21, animals are orally dosed (2 ml/kg) with either vehicle (0.5% methylcellulose/0.2% Tween 80) or test compound 2 hours prior to antigen challenge. Thirty minutes before antigen challenge the animals are also injected with mepyramine (30 mg/kg, i.p.) to prevent anaphylactic collapse. Animals are then exposed for 5 minutes to an aerosol of either saline (control animals) or 1% ovalbumin using a deVilbiss Ultraneb nebulizer.
AHR measurement: Eighteen to twenty four hours after challenge, animals are anesthetized with a combination of ketamine (133 mg/kg) and xylazine (24 mg/kg) given intramuscularly, surgically prepared and then mounted in a whole body plethysmograph for lung function measurement. Animals were connected to Ugo-Basile ventilators delivering a tidal volume of 1 mL/100 g at a rate of 50 breaths/minute via a tracheal cannula. The jugular vein is also cannulated for histamine challenge. A water filled oesophageal cannula is placed such that transpulmonary pressure could be recorded. Transpulmonary pressure is measured as the difference between the tracheal and esophageal cannulas using a differential pressure transducer. The volume, airflow, and transpulmonary pressure signals are monitored using a pulmonary analysis system (Buxco XA software) and used to calculate pulmonary resistance (cm H2O/mL/s) and dynamic compliance (mL/cm H2O). Airway resistance and dynamic compliance were computed on a breath by breath basis. Histamine is administered intravenously and reactivity to increasing concentrations (0.1-10 μg/kg) assessed. ID50's are estimated from the RL300 (histamine concentration required to 300% increase in lung resistance) and Cdyn40 (histamine concentration required to induce a 40% decrease in dynamic lung compliance) parameters deduced from the individual […] a histamine dose-response curves.

[4] = target: T1, recombinant human β tryptase; conditions: greatest β-Tryptase inhibitory potency disclosed in U.S. application Ser. No. 09/843,126; cited from earlier work
[5] = listed as compound of the present invention, trifluoroacetate

SMILES | protective effect as measured by airway resistance [1] | protective effect as measured by lung compliance [1] | Intravenous ID50 Dynamic Lung Compliance [1] [mg/kg] | Intravenous ID50 Airway Hyperresponsiveness [1] [mg/kg] | Ki [2] | protection against AHR to histamine, airway resistance [3] | Oral ID50 Dynamic Lung Compliance [3] [mg/kg] | Oral ID50 Airway Hyperresponsiveness [3] | other results
NCc1cccc(C2CCN(C(=O)c3cccc(C#Cc4ccccc4)c3)CC2)c1.O=C(O)C(F)(F)F [Structure (II) where X = H, [4-(3-aminomethylphenyl)piperidin-1-yl]-(3-phenylethynylphenyl)methanone trifluoroacetate] | uniformly ineffective | does not show any protective effects | >3.0 | >3.0 | 106 nM |  |  |  | 
NCc1cccc(C2CCN(C(=O)c3cccc(C#Cc4ccccc4F)c3)CC2)c1.O=C(O)C(F)(F)F [Structure (II) where X=F, [4-(3-aminomethylphenyl)piperidin-1-yl]-[3-(2-fluorophenylethynyl)phenyl]methanone trifluoroacetate] |  |  |  |  | 97 nM |  |  |  | fold increase in β-Tryptase inhibitory potency ([2]; Structure (II) where X=F versus Structure (II) where X=H): 1.09 fold
NCc1cccc(C2CCN(C(=O)c3ccc(C#Cc4ccccc4F)o3)CC2)c1 [Structure (III) where X = F, [4-(3-Aminomethylphenyl)piperidin-1-yl]-[5-(2-fluorophenylethynyl)furan-2-yl]-methanone trifluoroacetate] | protective at all doses | protective at all doses |  |  | 7.6 to 9.7 nM and 7.6 nM and 9.7 nM | significantly protects against AHR to histamine | 1 to 2 | 1 to 2 mg/kg | effect on basal airway resistance ([3]; sensitized guinea pigs): no effect; effect on basal dynamic lung compliance ([3]; sensitized guinea pigs): no effect; Intravenous ID50 Dynamic Lung Compliance [1, 5]: < 0.3 mg/kg; Intravenous ID50 Dynamic Lung Compliance ([1]; trifluoroacetate): <0.3 mg/kg; Intravenous ID50 Airway Hyperresponsiveness [1, 5]: < 0.3 mg/kg; Intravenous ID50 Airway Hyperresponsiveness ([1]; trifluoroacetate): <0.3 mg/kg
NCc1cccc(C2CCN(C(=O)c3ccc(C#Cc4ccccc4)o3)CC2)c1.O=C(O)C(F)(F)F [Structure (III) where X = H, [4-(3-aminomethylphenyl)piperidin-1-yl]-(5-phenylethynylfuran-2-yl)methanone trifluoroacetate] | reversed airway resistance at the highest dose | does not show any protective effects | >3.0 | 1 to 3 | 31 nM | protective on airway resistance, but the effects are not statistically significant | >30 | Protective at 3, | effect on lung compliance ([3]; oral dosing at 3, 10, and 30 mg/kg): No effect; fold increase in β-Tryptase inhibitory potency ([2]; Structure (III) where X=H versus Structure (II) where X=H): 3.42 fold
NCc1cccc(C2CCN(C(=O)c3ccc(Cl)c(Cl)c3)CC2)c1 [[4-(3-Aminomethylphenyl)piperidin-1-yl]-(3,4-dichlorophenyl) methanonetrifluoroacetate] |  |  |  |  |  |  |  |  | Ki [4]: 31 nM

Source: patent publication US20040192734A1, “4-(3-aminomethylphenyl)piperidin-1-yl]-[5-(2-fluorophenylethynyl)furan-2-yl]-methanone as an inhibitor of mast cell tryptase” (AVENTIS PHARMACEUTICALS INC., priority 2002, published 2004)
